Values of other authors in patent publication US20180015164A1, “A Composition Containing Protective Agent for Singlet Oxygen and A Preparation Method therefor” (Nanjing University, priority 2016, published 2018).

Details: in the named solution (solvent / protective agent)

| Compound | lifetime of singlet oxygen [μs] |
| --- | --- |
| FC(Cl)(Cl)Cl [Freon 11] | 1000±200 |
| S=C=S [carbon disulfide] | 200±60 |
| ClC(Cl)Cl [chloroform] | 60±15 |
| [2H]O[2H] [deuteroxide] | 20 |
| CCO [ethyl alcohol] | 12 |
| CCCCCC [hexane] | 17 |
| CO [methyl alcohol] | 7 |
| FC(F)(F)C(F)(F)C(F)(F)C(F)(F)C(F)(F)C(F)(F)F [perfluorohexane] | 600±200 |
| O [water] | 2 |
